According to article PMC3510438, “The transmembrane tyrosines Y56, Y91 and Y167 play important roles in determining the affinity and transport rate of the rabbit proton-coupled peptide transporter PepT1” (The International Journal of Biochemistry & Cell Biology, 2009):
Residue numbers refer to the chain shown, from its start.

Columns and labels:
Test in all cases: Uptake of tracer [3H]-D-Phe-L-Gln into Xenopus oocytes
Format in all cases: cell-based, rabbit
Y167Q-rPepT1 = target: T1, Y167Q-rPepT1 (Oryctolagus cuniculus, UniProt P36836, Y167Q); details: both pHout 5.5 and 7.4
T1 construct: expressed in transfected cells; host or cells: Xenopus laevis oocytes injected with cRNA
T1 sequence (P36836 1-707 Y167Q): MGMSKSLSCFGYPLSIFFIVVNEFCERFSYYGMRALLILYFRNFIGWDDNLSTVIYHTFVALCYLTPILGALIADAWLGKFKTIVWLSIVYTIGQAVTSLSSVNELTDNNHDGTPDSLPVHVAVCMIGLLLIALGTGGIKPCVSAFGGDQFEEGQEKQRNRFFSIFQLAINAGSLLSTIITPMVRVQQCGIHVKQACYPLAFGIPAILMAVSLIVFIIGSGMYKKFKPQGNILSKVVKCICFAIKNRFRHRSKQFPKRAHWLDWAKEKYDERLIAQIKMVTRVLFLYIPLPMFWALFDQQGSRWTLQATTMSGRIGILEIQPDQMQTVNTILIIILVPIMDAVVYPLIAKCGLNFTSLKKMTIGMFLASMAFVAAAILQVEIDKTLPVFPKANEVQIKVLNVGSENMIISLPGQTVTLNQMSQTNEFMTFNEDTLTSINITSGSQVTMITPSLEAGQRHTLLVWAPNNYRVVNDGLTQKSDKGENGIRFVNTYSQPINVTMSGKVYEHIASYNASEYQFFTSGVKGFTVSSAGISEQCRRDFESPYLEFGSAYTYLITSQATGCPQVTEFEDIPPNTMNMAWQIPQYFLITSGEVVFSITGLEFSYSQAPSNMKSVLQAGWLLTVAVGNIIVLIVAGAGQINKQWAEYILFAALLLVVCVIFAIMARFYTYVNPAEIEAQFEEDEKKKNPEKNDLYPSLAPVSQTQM
Description: (§1) rPepT1 constructs were linearised with XbaI (New England Biolabs, UK) and cRNA generated by in vitro transcription (T7 mMessage mMachine, Ambion, Cambridgeshire, UK). Xenopus laevis oocytes were obtained under MS222 anaesthesia (0.2%, w/v) in accordance with the UK Animals (Scientific Procedures) Act, 1986, and maintained at 18 °C in modified Barth's medium (88 mM NaCl, 1 mM KCl, 0.82 mM MgSO4, 2.4 mM NaHCO3, 0.42 mM CaCl2, 10 mM Hepes, 5 mM sodium pyruvate, 50 μg ml^−1 gentamicin (Fluka, Poole, UK), adjusted to pH 7.6 with 1 M NaOH). Transport measurements were performed at least 72 h after micro-injection of oocytes with 27nl cRNA (1 μg/μl), with medium changed daily.
(§2) Uptake of [^3H]-D-Phe-L-Gln (17.4 Ci/mmole, custom synthesised, Cambridge Research Biochemicals, Stockton-on-Tees, UK) was performed as previously described ([Meredith, 2004]). Briefly, 5 oocytes were incubated in 100 μl of uptake medium (95 mM NaCl, 2 mM KCl, 1 mM CaCl2, 0.42 mM MgCl2, 10 mM Tris/Hepes pH 7.4 or Tris/Mes pH 5.5) with tracer (0.4 μM) [^3H]-D-Phe-L-Gln. After incubation, the oocytes were washed sequentially five times in 1 ml of ice-cold 120 mM NaCl solution, lysed individually with 100 μl 2% (w/v) SDS and liquid scintillation counted. As a control non-injected oocytes were also incubated in uptake medium with D-Phe-L-Gln as above.

Y56F-rPepT1 = target: T2, Y56F-rPepT1 (Oryctolagus cuniculus, UniProt P36836, Y56F); details: pHout 5.5; 1 h
T2 construct: expressed in transfected cells; host or cells: Xenopus laevis oocytes injected with cRNA
T2 sequence (P36836 1-707 Y56F): T1 sequence (P36836 1-707 Y167Q) with Y56F, Q167Y
Description: as §1, §2

wild-type rPepT1 = target: T3, wild-type rPepT1 (Oryctolagus cuniculus, UniProt P36836); details: 0.4 μM tracer; pHout 5.5; 1 h; non-injected control subtracted
T3 construct: expressed in transfected cells; host or cells: Xenopus laevis oocytes injected with cRNA
T3 sequence (P36836 1-707): T1 sequence (P36836 1-707 Y167Q) with Q167Y
Description: as §1, §2

reduction of uptake compared to the wild-type (Y167Q-rPepT1): > 90% | decrease in rate of uptake compared to the wild-type (Y56F-rPepT1): ~90% | uptake (wild-type rPepT1): 342 ± 37 fmol peptide/(oocyte h)
Substance: [^3H]-D-Phe-L-Gln
